Experiments:
[1] = system: HCV replicon cells; assay: Cell-Based HCV Replicon Assay; conditions: Hepatitis C virus, 72 h; replicon RNA level by real time PCR (Taqman), cells harvested on day 3
Procedure: To measure cell-based anti-HCV activity of the a Compound of Formula (I), replicon cells were seeded at 5000 cells/well in 96-well collagen I-coated Nunc plates in the presence of the Compound of Formula (I). Various concentrations of a Compound of Formula (I), typically in 10 serial 2-fold dilutions, were added to the assay mixture, the starting concentration of the compound ranging from 250 μM to 1 μM. The final concentration of DMSO was 0.5%, fetal bovine serum was 5%, in the assay media. Cells were harvested on day 3 by the addition of 1× cell lysis buffer (Ambion cat #8721). The replicon RNA level was measured using real time PCR (Taqman assay). The amplicon was located in 5B. The PCR primers were: 5B.2F, ATGGACAGGCGCCCTGA; 5B.2R, […]; the probe sequence was FAM-labeled CACGCCATGCGCTGCGG. GAPDH RNA was used as endogenous control and was amplified in the same reaction as NS5B (multiplex PCR) using primers and VIC-labeled probe recommended by the manufacturer (PE Applied Biosystem). The real-time RT-PCR reactions were run on ABI PRISM 7900HT Sequence Detection System using the following program: 48° C. for 30 min, 95° C. for 10 min, 40 cycles of 95° C. for 15 sec, 60° C. for 1 min. The ACT values (CT5B-CTGAPDH) were plotted against the concentration of test compound and fitted to the sigmoid dose-response model using XLfit4 (MDL). EC50 was defined as the concentration of inhibitor necessary to achieve ΔCT=1 over the projected baseline; EC90 the concentration necessary to achieve […] over the baseline. Alternatively, to quantitate the absolute amount of replicon RNA, a standard curve was established by including serially diluted T7 transcripts of replicon RNA in the Taqman assay. All Taqman reagents were from PE Applied Biosystems. Such an assay procedure was described in detail in e.g. Malcolm et al., Antimicrobial Agents and Chemotherapy 50: 1013-1020 (2006).
HCV Replicon assay data for selected Compounds of Formula (I) is provided below in Table 3, wherein the compound numbers correspond to the compound numbering set forth in the above specification. The data is designated as follows: “A” for EC50 values less than 1.0 micromolar (μM), “B” for EC50 values between 1.0 and 10.0 μM and “C” for EC50 values greater than 10.0 μM.

[2] = target: T1, HCV NS5B polymerase (Hepatitis C virus genotype 1b, UniProt P26663); assay: HCV NS5B Polymerase Inhibition Assay; assay type: biochemical
T1 construct: A soluble C-terminal 21-amino acid truncated NS5B enzyme form; polyhistidine (C); made in house; host or cells: Escherichia coli
T1 sequence (P26663 2420-2989): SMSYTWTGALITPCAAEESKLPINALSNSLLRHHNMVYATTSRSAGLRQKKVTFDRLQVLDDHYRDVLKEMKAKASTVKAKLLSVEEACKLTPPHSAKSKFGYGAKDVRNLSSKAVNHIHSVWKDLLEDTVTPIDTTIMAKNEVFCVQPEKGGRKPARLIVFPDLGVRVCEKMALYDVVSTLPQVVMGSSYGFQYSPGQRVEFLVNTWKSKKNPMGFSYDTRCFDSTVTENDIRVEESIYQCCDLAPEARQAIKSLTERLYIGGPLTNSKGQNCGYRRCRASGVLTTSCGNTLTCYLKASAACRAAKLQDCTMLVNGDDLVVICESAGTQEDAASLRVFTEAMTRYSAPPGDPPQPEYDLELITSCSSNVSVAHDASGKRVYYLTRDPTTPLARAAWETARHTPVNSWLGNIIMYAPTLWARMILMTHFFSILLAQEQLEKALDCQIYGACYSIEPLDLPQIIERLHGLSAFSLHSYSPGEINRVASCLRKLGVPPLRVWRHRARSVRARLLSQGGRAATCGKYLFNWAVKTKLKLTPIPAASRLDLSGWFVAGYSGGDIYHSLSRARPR
From the text: A chemically synthesized 75-mer version, designated DCoH75, whose sequence matches the 3′-end of D-RNA, and DCoH75ddC, where the 3′-terminal cytidine of DCoH75 is replaced by dideoxycytidine, were used for assaying the NS5B enzyme activity as described in Ferrari et al., 12th International Symposium on HCV and Related Viruses, P-306 (2005). A soluble C-terminal 21-amino acid truncated NS5B enzyme form (NS5B[…]CT21) was produced and purified from Escherichia coli as C-terminal polyhistidine-tagged fusion protein as described in Ferrari et al., J. Virol. 73:1649-1654 (1999). A typical assay contained 20 mM Hepes pH 7.3, 10 mM MgCl2, 60 mM NaCl, 100 μg/ml BSA, 20 units/ml RNasin, 7.5 mM DTT, 0.1 μM ATP/GTP/UTP, 0.026 μM CTP, 0.25 mM GAU, 0.03 μM RNA template, 20 μCi/ml [^33P]-CTP, 2% DMSO, and 30 or 150 nM NS5B enzyme. Reactions were incubated at 22° C. for 2 hours, then stopped by adding 150 mM EDTA, washed in DE81 filter plate in 0.5M di-basic sodium phosphate buffer, pH 7.0, and counted using Packard TopCount after the addition of scintillation cocktail. Polynucleotide synthesis was monitored by the incorporation of radiolabeled CTP. The effect of the Compounds of Formula (I) on the polymerase activity was evaluated by adding various concentrations of a Compound of Formula (I), typically in 10 serial 2-fold dilutions, to the assay mixture. The starting concentrations of the indole derivatives ranged from 200 μM to 1 μM. An IC50 value for the inhibitor, defined as the compound concentration that provides 50% inhibition of polymerase activity, was determined by fitting the cpm data to the Hill equation Y=100/(1+10^((Log IC50−X)*HillSlope)), where X is the logarithm of compound concentration, and Y is the % inhibition. Ferrari et al., 12th International Symposium on HCV and Related Viruses, P-306 (2005) described in detail this assay procedure. It should be noted that such an assay as described is exemplary and not intended to limit the scope of the invention. The skilled practitioner can appreciate that modifications including but not limited to RNA template, primer, nucleotides, NS5B polymerase form, buffer composition, can be made to develop similar assays that yield the same result for the efficacy of the compounds and compositions described in the invention.
NS5B polymerase inhibition data for selected Compounds of Formula (I) is provided below in Table 2, wherein the compound numbers correspond to the compound numbering set forth in the above specification.

| Compound | EC50 [1] [µM] | IC50 [2] [nM] |
| --- | --- | --- |
| O=C(O)c1c(-c2ccc[nH]c2=O)c2c3c(ccc2n1Cc1cc(F)ccc1F)CCCO3 [Compound 25] | < 1 | < 25 |
| O=C(O)c1c(-c2ccc[nH]c2=O)c2c3c(ccc2n1Cc1cc(F)ccc1F)OCCO3 [Compound 26] | < 1 | < 25 |
| CCS(=O)(=O)NC(=O)c1c(-c2ccc[nH]c2=O)c2c3ccccc3ccc2n1Cc1ccnc(N)c1 [Compound 14] | 1 to 10 | 25 to 100 |
| COC(=O)c1cccc(Cn2c(C(=O)NS(C)(=O)=O)c(-c3ccc[nH]c3=O)c3c4ccccc4ccc32)c1 [Compound 10] | 1 to 10 | < 25 |
| O=C(O)c1c(-c2ccc[nH]c2=O)c2c3ncccc3ccc2n1Cc1cc(F)ccc1F [Compound 17] | 1 to 10 | 25 to 100 |
| Nc1cc(Cn2c(C(=O)O)c(-c3ccccc3F)c3c4ccccc4ccc32)ccn1 [Compound 3] | 1 to 10 | > 100 |
| Nc1ccccc1Cn1c(C(=O)O)c(-c2ccccc2F)c2c3ccccc3ccc21 [Compound 1] | > 10 | > 100 |
| Nc1cc(Cn2c(C(=O)NS(=O)(=O)c3ccccc3)c(-c3ccc[nH]c3=O)c3c4ccccc4ccc32)ccn1 [Compound 11] | 1 to 10 | 25 to 100 |
| CS(=O)(=O)NC(=O)c1c(-c2ccc[nH]c2=O)c2c3ccccc3ccc2n1Cc1cccc(C(=O)O)c1 [Compound 12] | > 10 | < 25 |
| CC(C)(C)S(=O)(=O)NC(=O)c1c(-c2ccc[nH]c2=O)c2c3ccccc3ccc2n1Cc1ccnc(N)c1 [Compound 13] | – | 25 to 100 |
| CS(=O)(=O)NC(=O)c1cccc(Cn2c(C(=O)NS(C)(=O)=O)c(-c3ccc[nH]c3=O)c3c4ccccc4ccc32)c1 [Compound 9] | – | 25 to 100 |
| CS(=O)(=O)NC(=O)c1c(-c2ccc[nH]c2=O)c2c3c(ccc2n1Cc1cc(F)ccc1F)OCCO3 [Compound 20] | < 1 | < 25 |
| Nc1cc(Cn2c(C(=O)O)c(-c3ccccc3F)c3c4ccccc4ccc32)ncn1 [Compound 5] | > 10 | > 100 |
| O=C(O)c1c(-c2ccccc2F)c2c3ccccc3ccc2n1Cc1ccccc1 [Compound 2] | – | > 100 |
| CS(=O)(=O)NC(=O)c1c(-c2ccc[nH]c2=O)c2c3c(ccc2n1Cc1ccccc1F)OCCO3 [Compound 28] | < 1 | < 25 |
| O=C(O)c1c(-c2ccc[nH]c2=O)c2c3ccccc3c(F)cc2n1Cc1cc([N+](=O)[O-])ccc1F [Compound 27] | < 1 | 25 to 100 |
| O=C(O)c1c(-c2ccc[nH]c2=O)c2c3c(ccc2n1Cc1ccccc1F)OCCO3 [Compound 23] | 1 to 10 | < 25 |

| Compound | EC50 [1] [µM] | IC50 [2] [nM] |
| --- | --- | --- |
| O=C(NS(=O)(=O)C1CC1)c1c(-c2ccc[nH]c2=O)c2c3c(ccc2n1Cc1ccccc1F)CCCO3 [Compound 30] | < 1 | < 25 |
| CS(=O)(=O)NC(=O)c1c(-c2ccc[nH]c2=O)c2c3c(ccc2n1Cc1ccccc1F)CCCO3 [Compound 21] | < 1 | < 25 |
| O=C(O)c1c(-c2ccc[nH]c2=O)c2c3ncccc3ccc2n1Cc1ccc(F)cc1F [Compound 19] | – | > 100 |
| O=C(O)c1cccc(Cn2c(C(=O)O)c(-c3ccccc3F)c3c4ccccc4ccc32)c1 [Compound 7] | > 10 | > 100 |
| O=C(O)c1cccc(Cn2c(C(=O)O)c(-c3ccc[nH]c3=O)c3c4ccccc4ccc32)c1 [Compound 8] | – | > 100 |
| CS(=O)(=O)NC(=O)c1c(-c2ccc[nH]c2=O)c2c3c(ccc2n1Cc1cc(F)ccc1F)CCCO3 [Compound 29] | < 1 | < 25 |
| O=C(NS(=O)(=O)C1CC1)c1c(-c2ccc[nH]c2=O)c2c3c(ccc2n1Cc1cc(F)ccc1F)CCCO3 [Compound 32] | < 1 | < 25 |
| CS(=O)(=O)Nc1cccc(S(=O)(=O)NC(=O)c2c(-c3ccc[nH]c3=O)c3c4ccccc4ccc3n2Cc2ccc(F)cc2F)c1 [Compound 16] | < 1 | < 25 |
| O=C(NS(=O)(=O)C1CC1)c1c(-c2ccc[nH]c2=O)c2c3ccccc3c(F)cc2n1Cc1ccccc1F [Compound 31] | < 1 | < 25 |
| Nc1cc(Cn2c(C(=O)NS(=O)(=O)c3ccc(O)cc3)c(-c3ccc[nH]c3=O)c3c4ccccc4ccc32)ccn1 [Compound 15] | 1 to 10 | 25 to 100 |
| O=C(O)c1c(-c2ccc[nH]c2=O)c2c3ncccc3ccc2n1Cc1ccccc1F [Compound 18] | 1 to 10 | > 100 |
| O=C(O)c1c(-c2ccc[nH]c2=O)c2c3ccccc3c(F)cc2n1Cc1ccccc1F [Compound 24] | 1 to 10 | 25 to 100 |
| O=C(O)c1c(-c2ccc[nH]c2=O)c2c3c(ccc2n1Cc1ccccc1F)CCCO3 [Compound 22] | < 1 | < 25 |
| CS(=O)(=O)NC(=O)c1c(-c2ccc[nH]c2=O)c2c3ccccc3ccc2n1Cc1ccnc(N)c1 [Compound 6] | > 10 | 25 to 100 |
| O=C(NS(=O)(=O)C1CC1)c1c(-c2ccc[nH]c2=O)c2c3ccccc3c(F)cc2n1Cc1cc([N+](=O)[O-])ccc1F [Compound 33] | < 1 | < 25 |
| Nc1cc(Cn2c(C(=O)O)c(-c3ccc[nH]c3=O)c3c4ccccc4ccc32)ccn1 [Compound 4] | 1 to 10 | > 100 |

— patent US8546420B2, “4, 5-ring annulated indole derivatives for treating or preventing of HCV and related viral infections” (Merck Sharp & Dohme Corp., priority 2006, dated 2013)
